In general, melting point refers to the temperature, or range, at which the solid turns liquid.

Melting point data for 17 compounds are collected here from US7220758B2, “Ether substituted imidazopyridines” (3M Innovative Properties Company, priority 2002, dated 2007).

As to `CCc1nc2c(N)nc(C)c(C)c2n1CCOCCNC(=O)C1CCCCC1` [Example 104, N-{2-[2-(4-Amino-2-ethyl-6,7-dimethyl-1H-imidazo[4,5-c]pyridin-1-yl)ethoxy]ethyl}cyclohexanecarboxamide], the melting point fell in the range of 170 to 172 °C.

In the case of `CCc1nc2c(N)nc(C)c(C)c2n1CCOCCNC(=O)NC1CCCCC1` [Example 105], the melting point is 187 to 189 °C.

As for `CCc1nc2c(N)nc(C)c(C)c2n1CCOCCN1CCCS1(=O)=O` [Example 106, 1-{2-[2-(1,1-Dioxidoisothiazolidin-2-yl)ethoxy]ethyl}-2-ethyl-6,7-dimethyl-1H-imidazo[4,5-c]pyridin-4-amine], the melting point is 157 to 159 °C.

`CCc1nc2c(N)nc(C)c(C)c2n1CCOCCNC(=O)NC(=O)c1ccccc1` [Example 107, N-{2-[2-(4-Amino-2-ethyl-6,7-dimethyl-1H-imidazo[4,5-c]pyridin-1-yl)ethoxy]ethyl}-N′-benzoylurea] displayed a melting point of 185 to 187 °C.

For the compound `CCc1nc2c(N)nc(C)c(C)c2n1CCOCCNC(=O)NS(=O)(=O)c1ccccc1` [Example 108, N-[({2-[2-(4-Amino-2-ethyl-6,7-dimethyl-1H-imidazo[4,5-c]pyridin-1-yl)ethoxy]ethyl}amino)carbonyl]benzenesulfonamide], the melting point fell in the range of 201 to 203 °C.

For the compound `CCOCc1nc2c(N)nc(C)c(C)c2n1CCOCc1ccncc1` [Example 109, 2-(Ethoxymethyl)-6,7-dimethyl-1-[2-(pyridin-4-ylmethoxy)ethyl]-1II-imidazo[4,5-c]pyridin-4-amine], the melting point lay within 143 to 145 °C.

On to `Cc1nc(N)c2nc(C)n(CCOCc3ccncc3)c2c1C` [Example 110, 2,6,7-Trimethyl-1-[2-(pyridin-4-ylmethoxy)ethyl]-1H-imidazo[4,5-c]pyridin-4-amine], for which the melting point lay in the range of 208 to 210 °C.

For `CCOCc1nc2c(N)nc(C)c(C)c2n1CCOCC#Cc1cncnc1` [Example 111, 2-(Ethoxymethyl)-6,7-dimethyl-1-{2-[(3-pyrimidin-5-ylprop-2-ynyl)oxy]ethyl}-1H-imidazo[4,5-c]pyridin-4-amine], the melting point was 122 to 124 °C.

Compound `CCOCc1nc2c(N)nc(C)c(C)c2n1CCOCCCc1cncnc1` [Example 112, 2-(Ethoxymethyl)-6,7-dimethyl-1-[2-(3-pyrimidin-5-ylpropoxy)ethyl]-1H-imidazo[4,5-c]pyridin-4-amine] registered a melting point of 127 to 129 °C.

As for `CCCc1nc2c(N)ncc(Br)c2n1CCOCCNS(C)(=O)=O` [Example 113, N-{2-[2-(4-Amino-7-bromo-2-propyl-1H-imidazo[4,5-c]pyridin-1-yl)ethoxy]ethyl}methanesulfonamide], the melting point was 129 to 131 °C.

Compound `CCCc1nc2c(N)ncc(Br)c2n1CCOCCN` [Example 114, 1-[2-(2-Aminoethoxy)ethyl]-7-bromo-2-propyl-1H-imidazo[4,5-c]pyridin-4-amine] gave a melting point of 114 to 117 °C.

As for `CCCCNC(=O)c1ccc(S(=O)(=O)CCCn2c(CCC)nc3c(N)nc(C)c(C)c32)cc1` [Example 119, 4-[3-(4-Amino-6,7-dimethyl-2-propyl-1H-imidazo[4,5-c]pyridin-1-yl)propane-1-sulfonyl]-N-butylbenzamide], the melting point was in the range of 147 to 149 °C.

Compound `CCCCN(C)C(=O)c1ccc(S(=O)(=O)CCCn2c(CCC)nc3c(N)nc(C)c(C)c32)cc1` [Example 120, 4-[3-(4-Amino-6,7-dimethyl-2-propyl-1H-imidazo[4,5-c]pyridin-1-yl)propane-1-sulfonyl]-N-butyl-N-methylbenzamide] showed a melting point of 127 to 129 °C.

`CCCc1nc2c(N)nc(Cl)c(C)c2n1CCOCCN` [Example 121, 1-[2-(2-Aminoethoxy)ethyl]-6-chloro-7-methyl-2-propyl-1H-imidazo[4,5-c]pyridin-4-amine] registered a melting point of 158 to 161 °C.

Compound `CCOCc1nc2c(N)nc(C)c(C)c2n1CCOCC#Cc1ccccc1` [Example 122, 2-Ethoxymethyl-6,7-dimethyl-1-{2-[(3-phenylprop-2-ynyl)oxy]ethyl}-1H-imidazo[4,5-c]pyridin-4-amine] displayed a melting point of 129 to 130 °C.

`CCc1nc2c(N)nc(C)c(C)c2n1CCOCCN1CCCC1=O` [Example 124, 1-{2-[2-(4-Amino-2-ethyl-6,7-dimethyl-1H-imidazo[4,5-c]pyridin-1-yl)ethoxy]ethyl}pyrrolindin-2-one] yielded a melting point of 128 to 130 °C.

The compound `CCCc1nc2c(N)nc(Cl)c(C)c2n1CCOCCNC(=O)c1ccccc1` [Example 125, N-{2-[2-(4-Amino-6-chloro-7-methyl-2-propyl-1H-imidazo[4,5-c]pyridin-4-yl)ethoxy]ethyl}benzamide] registered a melting point of 188 to 189 °C.
